Patent US9861640B2, “Medicament for treatment of Alzheimer's disease” (KEMPHYS LTD., priority 2013, dated 2018)

Tests used:
[1] = system: RA response element (RARE); assay: RARE luciferase reporter gene assay in MG5 cells; type: cell-based, mouse; conditions: pGL3-RARE-Luc; 5 μM each, 24 h; fold induction relative to vehicle-treated cells
Experimental: MG5 cells (2×10^6 cells in 100 μl) were transfected by electroporation with 1.0 μg of pGL3-RARE-Luc (#13458; Addgene) or pGL3-Luc vector (Promega) and 0.25 μg of Renilla luciferase vector (phRL-TK) (Promega), using the Nucleofector transfection system (program #D-032; Amaxa) according to the manufacturer's protocol, taken up in the medium, and seeded in 48-well plates (1.25×10^5 cells/well). For some experiments, cells were transfected with 1.0 μg of pGL3-RARE-Luc or pGL3-Luc vector and 0.25 μg of phRL-TK in the presence of 0.25 μg each of pcDNA3.1-RAR (#16287; Addgene) and pcDNA3.1-RXR (#8882; Addgene). An empty pcDNA3.1 expression vector was used to maintain equal amounts of DNA for each transfection. Five hours after transfection, the cells were exposed to Am80 (5 μM) and/or HX630 (5 μM) in the medium for 24 h. Luciferase activities were determined in cell lysates. Firefly luciferase activity was normalized to that of Renilla luciferase for each well.

full-length (fl)-APP = assay: Immunoblot of full-length APP in brains of APP23 mice; type: in vivo, mouse; conditions: 8.5-month-old male APP23 mice; Am80 0.5 and/or HX630 5 mg/kg/d; day 18
Experimental: APP23 mice begin forming amyloid deposits when they are 6 months old, but memory deficits in the MWM test appear quite early (before 3 months of age). Here, we used 8.5-month-old male APP23 mice and their WT littermates (C57BL/6J). We used stratified random sampling to divide mice (four to six per cage) into four groups to equalize the mean body weight of the study groups: mice given 0.5 mg/kg/d Am80, those given 5 mg/kg/d HX630, those given the mixture of 0.5 mg/kg/d Am80 and 5 mg/kg/d HX630, and those given the vehicle. Am80 and HX630 were suspended in 0.5% (w/v) carboxymethylcellulose solution and were orally administered to mice at 0.5 mg/kg (Am80) or 5 mg/kg (HX630) for 17 consecutive days (once daily at 18:00). Control animals received the same volume of 0.5% (w/v) carboxymethylcellulose solution orally, without the other compounds. We set the 0.5 mg/kg/d dose for Am80 on the basis that this had been found effective in other in vivo studies, such as those by Kawahara et al. and Ishido and Shudo [37]. Higher doses of Am80 (3 mg/kg/d and 6 mg/kg/d) were also orally administered to mice for 17 consecutive days. Animals were weighed once a week. Mice were subjected to behavioral testing on days 15-18 of the first oral administration of the compounds (at 19:00-23:00). On days 15-17 (not day 18), animals received the compounds at 24:00, after behavioral testing. […]

APP23 mice = assay: Morris water maze (MWM) test; type: in vivo, mouse; conditions: 8.5-month-old male APP23 mice; for acquisition of spatial learning (escape latency) in the MWM test: oral Am80 0.5 mg/kg and/or HX630 5 mg/kg for 17 days, vs vehicle-treated APP23 mice
Experimental: Hemizygous APP23 mice, which overexpress human-type AβPP carrying the double mutation K670N/M671L, were produced and bred as previously described. Only male mice were analyzed. Wistar rats were obtained from Kyudo Co., Ltd. (Kumamoto, Japan). Animals were housed in standard mouse cages under standard laboratory conditions: food and water available ad libitum, constant room temperature and humidity, and a 12 h light/12 h dark cycle (light on from 08:00 to 20:00). These animal experiments were conducted according to the guidelines of the Ministry of Education, Culture, Sports, Science, and Technology of Japan, and were approved by the Institutional Animal Care and Use Committee of Kumamoto University (#B25-133).
APP23 mice begin forming amyloid deposits when they are 6 months old, but memory deficits in the MWM test appear quite early (before 3 months of age). Here, we used 8.5-month-old male APP23 mice and their WT littermates (C57BL/6J). We used stratified random sampling to divide mice (four to six per cage) into four groups to equalize the mean body weight of the study groups: mice given 0.5 mg/kg/d Am80, those given 5 mg/kg/d HX630, those given the mixture of 0.5 mg/kg/d Am80 and 5 mg/kg/d HX630, and those given the vehicle. Am80 and HX630 were suspended in 0.5% (w/v) carboxymethylcellulose solution and were orally administered to mice at 0.5 mg/kg (Am80) or 5 mg/kg (HX630) for 17 consecutive days (once daily at 18:00). Control animals received the same volume of 0.5% (w/v) carboxymethylcellulose solution orally, without the other compounds. […]
The MWM test was performed as described previously. […] During both acquisition and probe trials, the routes of the mice were recorded by means of a computerized video tracking system (CompACT VAS; Muromachi Kikai Co. Ltd., Tokyo, Japan). Training trials measured the time it took for a mouse to find the escape platform. Probe trials determined the percent time spent in each quadrant of the maze. […]

| Compound | RARE reporter activity in MG5 cells [1] | total amount of full-length (fl)-APP in brain (full-length (fl)-APP) | acquisition of spatial learning (escape latency) in the MWM test (APP23 mice) | memory deficits in APP23 mice (MWM) (APP23 mice; oral Am80 0.5 mg/kg and/or HX630 5 mg/kg, 17 days) |
| --- | --- | --- | --- | --- |
| CC1(C)CCC(C)(C)c2cc(NC(=O)c3ccc(C(=O)O)cc3)ccc21 [Am80, 4-{(5,6,7,8-tetrahydro-5,5,8,8-tetramethyl-2-naphthalenyl)carbamoyl}benzoic acid] | 4.3 fold | had no effect | No significant difference | did not ameliorate memory deficits |
| CN1c2ccccc2N=C(c2ccc(C(=O)O)cc2)c2cc3c(cc21)C(C)(C)CCC3(C)C [HX630, 4-[5H-2,3-(2,5dimethyl-2,5-hexano)-5-methyldibenzo[b,e]-diazepin-11-yl]benzoic acid] | no increase | had no effect | No significant difference | – |
